Structures are written as SMILES.

The record followed here is US9902696B2, “1,4-substituted piperidine derivatives” (Cephalon, Inc., priority 2015, dated 2018).

This assay deals with T1, recombinant human baculovirus-expressed GST-tagged FASN (Homo sapiens, UniProt P49327).
T1 construct: GST
T1 sequence (P49327 whole entry): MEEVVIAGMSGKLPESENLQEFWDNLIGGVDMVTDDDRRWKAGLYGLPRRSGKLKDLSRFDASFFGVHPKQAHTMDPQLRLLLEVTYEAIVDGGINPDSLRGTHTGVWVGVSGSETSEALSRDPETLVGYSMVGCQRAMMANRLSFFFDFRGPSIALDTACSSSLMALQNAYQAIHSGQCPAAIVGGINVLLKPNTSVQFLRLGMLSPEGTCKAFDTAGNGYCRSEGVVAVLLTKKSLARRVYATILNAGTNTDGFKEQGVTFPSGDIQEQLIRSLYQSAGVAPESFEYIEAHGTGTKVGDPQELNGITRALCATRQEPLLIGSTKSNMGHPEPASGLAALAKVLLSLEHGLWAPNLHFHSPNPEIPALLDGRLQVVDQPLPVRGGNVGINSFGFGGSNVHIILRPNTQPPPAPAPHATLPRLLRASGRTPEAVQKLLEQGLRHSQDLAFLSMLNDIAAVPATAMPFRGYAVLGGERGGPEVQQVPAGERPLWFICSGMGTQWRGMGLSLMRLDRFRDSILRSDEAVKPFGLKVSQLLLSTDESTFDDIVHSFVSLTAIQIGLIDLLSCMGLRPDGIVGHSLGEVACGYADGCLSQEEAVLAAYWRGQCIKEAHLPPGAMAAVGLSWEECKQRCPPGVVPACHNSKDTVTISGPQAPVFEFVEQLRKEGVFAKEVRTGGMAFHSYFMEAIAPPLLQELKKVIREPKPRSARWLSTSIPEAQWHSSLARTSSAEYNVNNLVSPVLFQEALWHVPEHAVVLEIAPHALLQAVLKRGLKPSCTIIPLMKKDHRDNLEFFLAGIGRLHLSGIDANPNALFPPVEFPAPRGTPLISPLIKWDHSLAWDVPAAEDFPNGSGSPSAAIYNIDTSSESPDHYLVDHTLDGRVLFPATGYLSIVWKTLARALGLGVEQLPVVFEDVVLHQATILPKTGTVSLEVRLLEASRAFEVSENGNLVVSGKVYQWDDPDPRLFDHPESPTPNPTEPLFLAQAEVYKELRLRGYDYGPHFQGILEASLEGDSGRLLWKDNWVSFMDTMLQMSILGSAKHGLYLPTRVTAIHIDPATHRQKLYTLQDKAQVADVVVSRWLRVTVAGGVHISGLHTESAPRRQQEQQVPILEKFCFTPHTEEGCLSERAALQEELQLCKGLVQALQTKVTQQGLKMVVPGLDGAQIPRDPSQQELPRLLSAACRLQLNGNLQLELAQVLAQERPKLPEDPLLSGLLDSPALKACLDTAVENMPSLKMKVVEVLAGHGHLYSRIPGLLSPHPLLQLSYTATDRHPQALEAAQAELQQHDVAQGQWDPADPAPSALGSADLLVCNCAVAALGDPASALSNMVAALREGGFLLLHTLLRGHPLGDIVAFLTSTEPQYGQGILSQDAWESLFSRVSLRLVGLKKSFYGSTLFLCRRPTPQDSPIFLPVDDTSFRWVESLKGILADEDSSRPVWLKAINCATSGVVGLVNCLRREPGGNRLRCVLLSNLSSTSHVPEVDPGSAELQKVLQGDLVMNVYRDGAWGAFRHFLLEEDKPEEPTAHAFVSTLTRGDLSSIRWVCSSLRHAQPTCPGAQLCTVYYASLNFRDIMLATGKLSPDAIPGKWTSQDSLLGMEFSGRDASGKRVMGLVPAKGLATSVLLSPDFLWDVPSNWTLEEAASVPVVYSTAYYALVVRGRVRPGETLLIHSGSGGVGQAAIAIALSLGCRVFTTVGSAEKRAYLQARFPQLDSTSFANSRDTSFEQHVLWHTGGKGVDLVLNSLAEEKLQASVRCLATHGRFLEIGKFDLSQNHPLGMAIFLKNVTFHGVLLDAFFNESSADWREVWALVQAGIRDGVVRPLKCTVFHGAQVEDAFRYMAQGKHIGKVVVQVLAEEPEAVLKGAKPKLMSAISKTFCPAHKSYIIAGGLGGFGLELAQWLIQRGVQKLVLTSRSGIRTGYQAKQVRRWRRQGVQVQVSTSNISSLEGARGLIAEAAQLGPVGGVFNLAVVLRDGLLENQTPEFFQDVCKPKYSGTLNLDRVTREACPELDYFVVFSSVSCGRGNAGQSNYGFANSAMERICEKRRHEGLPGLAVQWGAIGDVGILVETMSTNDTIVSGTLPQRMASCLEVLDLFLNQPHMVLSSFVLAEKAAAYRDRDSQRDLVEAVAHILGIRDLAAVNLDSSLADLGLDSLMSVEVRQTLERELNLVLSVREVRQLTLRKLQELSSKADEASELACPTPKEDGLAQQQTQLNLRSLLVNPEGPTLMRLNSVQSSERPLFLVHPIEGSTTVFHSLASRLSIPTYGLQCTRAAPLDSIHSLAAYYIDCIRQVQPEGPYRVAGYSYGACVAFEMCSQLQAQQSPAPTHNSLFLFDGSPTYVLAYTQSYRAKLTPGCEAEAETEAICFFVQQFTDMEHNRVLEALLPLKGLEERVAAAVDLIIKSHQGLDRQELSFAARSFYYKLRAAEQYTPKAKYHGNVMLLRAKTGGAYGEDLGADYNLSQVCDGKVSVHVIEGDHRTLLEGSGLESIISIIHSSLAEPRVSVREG
Kind of assay: FASN enzyme activity assay, fluorescence-based detection of CoA with CPM. Type of assay: biochemical. The following applies: 5 nM FASN, 150 μM NADPH, 10 μM acetyl-CoA, 25 μM malonyl-CoA, 90 minutes incubation; read-out: IC50 data for Compounds of Formulae I-V/V(a): Activity. In a few lines:
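Human GST-tagged FASN, baculovirus-expressed (5 nM), in 50 mM HEPES pH 7.5 with 150 μM NADPH, 10 μM acetyl-CoA, 25 μM malonyl-CoA, 0.5% DMSO; malonyl-CoA-started, 90 min. Released CoA detected with CPM (50 μM dilution), 30 min, fluorescence ex 390/em 530. IC50 from variable-slope sigmoidal fit of % inhibition versus log concentration.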
As for `Cc1c(-c2ccc(OC3CCN(C(=O)[C@H]4CCCO4)CC3)cc2)ccc2ncnn12` [Example 311, {4-[4-(5-Methyl-[1,2,4]triazolo[1,5-a]pyridin-6-yl)-phenoxy]-piperidin-1-yl}-(R)-tetrahydrofuran-2-yl-methanone], the IC50 lay in the range of 1 to 99 nM. In the case of `Cc1c(-c2ccc(OC3CCN(C(=O)C4(O)CC4)CC3)cc2)ccc2ncnn12` [Example 312, (1-Hydroxycyclopropyl)-{4-[4-(5-methyl-[1,2,4]triazolo[1,5-a]pyridin-6-yl)-phenoxy]-piperidin-1-yl}-methanone] it was 100 to 999 nM; in that of `CCC(=O)N1CCC(Oc2ccc(-c3ccc4ncnn4c3C)cc2)CC1` [Example 313, 1-{4-[4-(5-Methyl-[1,2,4]triazolo[1,5-a]pyridin-6-yl)-phenoxy]-piperidin-1-yl}-propan-1-one], 1000 to 10000 nM. In the case of `Cc1c(-c2ccc(OC3CCN(C(=O)C4CC4)CC3)cc2)ccc2ncnn12` [Example 314, Cyclopropyl-{4-[4-(5-methyl-[1,2,4]triazolo[1,5-a]pyridin-6-yl)-phenoxy]-piperidin-1-yl}-methanone] it was 1000 to 10000 nM; in that of `Cc1c(-c2ccc(OC3CCN(C(=O)C4(C(F)(F)F)CC4)CC3)cc2)ccc2cccnc12` [Example 315, {4-[4-(8-Methylquinolin-7-yl)-phenoxy]-piperidin-1-yl}-(1-trifluoro-methylcyclopropyl)-methanone], 1000 to 10000 nM; in that of `Cc1c(-c2ccc(OC3CCN(C(=O)C4(N)CC4)CC3)cc2)ccc2cccnc12` [Example 316, (1-Aminocyclopropyl)-{4-[4-(8-methyl-quinolin-7-yl)-phenoxy]-piperidin-1-yl}-methanone], 1 to 99 nM. Regarding `Cn1ncc2ccc(-c3ccc(OC4CCN(C(=O)[C@H]5CCCO5)CC4)cc3)cc21` [Example 317, {4-[4-(1-Methyl-1H-indazol-6-yl)-phenoxy]-piperidin-1-yl}-(R)-tetrahydrofuran-2-yl-methanone; compound with trifluoroacetic acid], the IC50 lay within 1 to 99 nM. In the case of `O=C([C@H]1CCCO1)N1CCC(Oc2ccc(-c3ccc4nccn4c3)cc2)CC1` [Example 318, [4-(4-Imidazo[1,2-a]pyridin-6-yl-phenoxy)-piperidin-1-yl]-(R)-tetrahydro-furan-2-yl-methanone; compound with trifluoroacetic acid] it was 1 to 99 nM. In the case of `Cc1c(-c2ccc(OC3CCN(C(=O)C4(C#N)CC4)CC3)cc2)ccc2cccnc12` [Example 319, 1-{4-[4-(8-Methylquinolin-7-yl)-phenoxy]-piperidine-1-carbonyl}-cyclopropanecarbonitrile] it was 1000 to 10000 nM. As for `Cc1c(-c2ccc(OC3CCN(C(=O)C4(C)CC4)CC3)cc2)ccc2cccnc12` [Example 320, (1-Methylcyclopropyl)-{4-[4-(8-methyl-quinolin-7-yl)-phenoxy]-piperidin-1-yl}-methanone], the figure is 1 to 99 nM; as for `Cc1c(-c2ccc(OC3CCN(C(=O)[C@H]4CC4(C)C)CC3)cc2)ccc2cccnc12` [Example 321, ((S)-2,2-Dimethylcyclopropyl)-{4-[4-(8-methyl-quinolin-7-yl)-phenoxy]-piperidin-1-yl}-methanone], 100 to 999 nM. As for `Cc1c(-c2ccc(OC3CCN(C(=O)C4CC4(C)C)CC3)cc2)ccc2cccnc12` (centres unmarked) [Example 322, (2,2-Dimethylcyclopropyl)-{4-[4-(8-methyl-quinolin-7-yl)-phenoxy]-piperidin-1-yl}-methanone], the IC50 is 1 to 99 nM.

Take `CN1CCN(c2c(-c3ccc(OC4CCN(C(=O)[C@H]5CCCO5)CC4)cc3)ccc3cccnc23)CC1` [Example 323, [4-[4-[8-(4-Methylpiperazin-1-yl)-7-quinolyl]phenoxy]-1-piperidyl]-[(2R)-tetrahydrofuran-2-yl]methanone]: the IC50 lay within 1000 to 10000 nM. In the case of `Nc1c(-c2ccc(OC3CCN(C(=O)[C@H]4CCCO4)CC3)cc2)ccc2cccnc12` [Example 324, [4-[4-(8-Amino-7-quinolyl)phenoxy]-1-piperidyl]-[(2R)-tetrahydrofuran-2-yl]methanone] it was 1 to 99 nM.
